target: human adenosine A2b receptor (Homo sapiens (Human), UniProt P29275); test: Cellular in vitro reporter gene test for A2b receptor activity (CHO-K1, CRE-luciferase, NECA stimulation); assay type: cell-based; details: recombinant CHO-K1 cell line, CRE-luciferase reporter, antagonism of EC50 concentration of NECA; in some cases means of several determinations, rounded to two significant figures; read-out: A2b receptor IC50
In short: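 CHO-K1 cells with CRE-driven luciferase; antagonists co-incubated with NECA at its EC50, determined in a pre-experiment on each test day. Luciferase read by luminescence 3 h after NECA addition.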

human adenosine A2b receptor, sequence (P29275 whole entry): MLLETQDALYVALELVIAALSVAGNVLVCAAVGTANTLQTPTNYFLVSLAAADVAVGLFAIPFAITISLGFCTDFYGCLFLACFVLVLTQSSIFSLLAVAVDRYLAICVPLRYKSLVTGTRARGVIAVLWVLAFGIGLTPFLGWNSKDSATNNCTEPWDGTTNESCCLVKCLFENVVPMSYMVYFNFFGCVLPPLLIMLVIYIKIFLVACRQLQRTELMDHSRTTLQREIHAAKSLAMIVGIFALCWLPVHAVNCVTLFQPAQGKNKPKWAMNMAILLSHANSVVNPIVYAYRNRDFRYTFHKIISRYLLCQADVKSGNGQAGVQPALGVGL

IC50 [nM]	SMILES
19	CCn1c(=O)c2c(C)c(Cn3[nH]ccc3=O)sc2n(CC2CCCO2)c1=O (racemic) [Example 129, 3-Ethyl-5-methyl-6-[(5-oxo-2,5-dihydro-1H-pyrazol-1-yl)methyl]-1-(tetrahydrofuran-2-ylmethyl)thieno[2,3-d]pyrimidine-2,4(1H,3H)-dione]
120	COCCn1c(=O)n(CC2CCCO2)c(=O)c2c(C)c(CN3CCNC3=O)sc21 (single isomer, unassigned) [Example 334, 1-(2-Methoxyethyl)-5-methyl-6-[(2-oxoimidazolidin-1-yl)methyl]-3-(tetrahydrofuran-2-ylmethyl)thieno[2,3-d]pyrimidine-2,4(1H,3H)-dione]
5.1	Cc1c(CN2CCNC2=NC#N)sc2c1c(=O)n(C(C)C)c(=O)n2CC1CCCO1 (single isomer, unassigned) [Example 356, [1-{[3-Isopropyl-5-methyl-2,4-dioxo-1-(tetrahydrofuran-2-ylmethyl)-1,2,3,4-tetrahydrothieno[2,3-d]pyrimidin-6-yl]methyl}imidazolidin-2-ylidene]cyanamide]
35	Cc1c(CN2CCNC(=O)C2=O)sc2c1c(=O)n(C(C)C)c(=O)n2CC1CCCO1 (racemic) [Example 480, 6-[(2,3-Dioxopiperazin-1-yl)methyl]-3-isopropyl-5-methyl-1-(tetrahydrofuran-2-ylmethyl)thieno[2,3-d]pyrimidine-2,4(1H,3H)-dione]
56	COCCn1c(=O)c2c(C)c(CN3CCNC3=NC(=O)OC)sc2n(CC2CCCO2)c1=O (single isomer, unassigned) [Example 392, Methyl [1-f{[3-(2-methoxyethyl)-5-methyl-2,4-dioxo-1-(tetrahydrofuran-2-ylmethyl)-1,2,3,4-tetrahydrothieno[2,3-d]pyrimidin-6-yl]methyl}imidazolidin-2-ylidene]carbamate]
18	COCCn1c(=O)n(CC(F)(F)F)c(=O)c2c(C)c(Cn3cc[nH]c3=O)sc21 [Example 340, 1-(2-Methoxyethyl)-5-methyl-6-[(2-oxo-2,3-dihydro-1H-imidazol-1-yl)methyl]-3-(2,2,2-trifluoroethyl)thieno[2,3-d]pyrimidine-2,4(1H,3H)-dione]
3.5	CCn1c(=O)c2c(C)c(CN3CCN(C)C3=O)sc2n(CCC(F)(F)F)c1=O [Example 103, 3-Ethyl-5-methyl-6-[(3-methyl-2-oxoimidazolidin-1-yl)methyl]-1-(3,3,3-trifluoropropyl)thieno[2,3-d]pyrimidine-2,4(1H,3H)-dione]
120	CCn1c(=O)c2c(C)c(CN3CC(NC(=O)OC(C)(C)C)CC3=O)sc2n(CCC(F)(F)F)c1=O (racemic) [Example 8, tert-Butyl (1-{[3-ethyl-5-methyl-2,4-dioxo-1-(3,3,3-trifluoropropyl)-1,2,3,4-tetrahydrothieno[2,3-d]pyrimidin-6-yl]methyl}-5-oxopyrrolidin-3-yl)carbamate (racemate)]
3.2	CCn1c(=O)c2c(C)c(CN3CCNC(=O)C3=O)sc2n(CCC(F)(F)F)c1=O [Example 394, 6-[(2,3-Dioxopiperazin-1-yl)methyl]-3-ethyl-5-methyl-1-(3,3,3-trifluoropropyl)thieno[2,3-d]pyrimidine-2,4(1H,3H)-dione]
9.4	COCCn1c(=O)n(CC(F)F)c(=O)c2c(C)c(CN3CCNC3=O)sc21 [Example 96, 3-(2,2-Difluoroethyl)-1-(2-methoxyethyl)-5-methyl-6-[(2-oxoimidazolidin-1-yl)methyl]thieno[2,3-d]pyrimidine-2,4(1H,3H)-dione]
87	COCCn1c(=O)c2c(C)c(CN3CCNC3=NC(=O)OC)sc2n(CC2CCO2)c1=O (single isomer, unassigned) [Example 389, Methyl [1-{[3-(2-methoxyethyl)-5-methyl-1-(oxetan-2-ylmethyl)-2,4-dioxo-1,2,3,4-tetrahydrothieno[2,3-d]pyrimidin-6-yl]methyl}imidazolidin-2-ylidene]carbamate]
4.9	COC(=O)N=C1NCCN1Cc1sc2c(c1C)c(=O)n(C(C)C)c(=O)n2CC1CCCO1 (single isomer, unassigned) [Example 459, Methyl [1-{[3-isopropyl-5-methyl-2,4-dioxo-1-(tetrahydrofuran-2-ylmethyl)-1,2,3,4-tetrahydrothieno[2,3-d]pyrimidin-6-yl]methyl}imidazolidin-2-ylidene]carbamate]
6.8	CCn1c(=O)c2c(C(F)F)c(CN3CCNC3=O)sc2n(CCC(F)(F)F)c1=O [Example 100, 5-(Difluoromethyl)-3-ethyl-6-[(2-oxoimidazolidin-1-yl)methyl]-1-(3,3,3-trifluoropropyl)thieno[2,3-d]pyrimidine-2,4(1H,3H)-dione]
56	COCCn1c(=O)c2c(C)c(Cn3cc[nH]c3=O)sc2n(CC2CCCO2)c1=O (single isomer, unassigned) [Example 347, 3-(2-Methoxyethyl)-5-methyl-6-[(2-oxo-2,3-dihydro-1H-imidazol-1-yl)methyl]-1-(tetrahydrofuran-2-ylmethyl)thieno[2,3-d]pyrimidine-2,4(1H,3H)-dione]
110	COCCn1c(=O)c2c(C)c(CN3CCNC3=NC#N)sc2n(CC2CCO2)c1=O (single isomer, unassigned) [Example 365, [1-{[3-Methoxyethyl-5-methyl-1-(oxetan-2-ylmethyl)-2,4-dioxo-1,2,3,4-tetrahydrothieno[2,3-d]pyrimidin-6-yl]methyl}imidazolidin-2-ylidene]cyanamide]
4.7	COCCn1c(=O)n(C(C)C)c(=O)c2c(C)c(Cn3cc[nH]c3=O)sc21 [Example 246, 3-Isopropyl-1-(2-methoxyethyl)-5-methyl-6-[(2-oxo-2,3-dihydro-1H-imidazol-1-yl)methyl]thieno[2,3-d]pyrimidine-2,4(1H,3H)-dione]
320	COCCn1c(=O)c2c(C)c(CN3CCNC(=O)C3=O)sc2n(CC2CCO2)c1=O (racemic) [Example 400, 6-[(2,3-Dioxopiperazin-1-yl)methyl]-3-(2-methoxyethyl)-5-methyl-1-(oxetan-2-ylmethyl)thieno[2,3-d]pyrimidine-2,4(1H,3H)-dione]
110	COCCn1c(=O)n(CC2CCCO2)c(=O)c2c(C)c(CN3CCNC3=O)sc21 (single isomer, unassigned) [Example 333, 1-(2-Methoxyethyl)-5-methyl-6-[(2-oxoimidazolidin-1-yl)methyl]-3-(tetrahydrofuran-2-ylmethyl)thieno[2,3-d]pyrimidine-2,4(1H,3H)-dione]
2.8	CCn1c(=O)c2c(C)c(CN3CCNC3=S)sc2n(CC2CCCO2)c1=O (single isomer, unassigned) [Example 139, 3-Ethyl-5-methyl-1-(tetrahydrofuran-2-ylmethyl)-6-[(2-thioxoimidazolidin-1-yl)methyl]thieno[2,3-d]pyrimidine-2,4(1H,3H)-dione]
9.7	COCCn1c(=O)n(CC2CC2)c(=O)c2c(C)c(CN3CCNC3=O)sc21 [Example 92]
76	Cc1c(CN2CCNC(=O)C2=O)sc2c1c(=O)n(CC(F)F)c(=O)n2C [Example 275, 3-(2,2-Difluoroethyl)-6-[(2,3-dioxopiperazin-1-yl)methyl]-1,5-dimethylthieno[2,3-d]pyrimidine-2,4(1H,3H)-dione]
110	COCCn1c(=O)n(C(C)C(F)(F)F)c(=O)c2c(C)c(CN3CCNC3=NC#N)sc21 (single isomer, unassigned) [Example 511, [1-{[1-(2-Methoxyethyl)-5-methyl-2,4-dioxo-3-(1,1,1-trifluoropropan-2-yl)-1,2,3,4-tetrahydrothieno[2,3-d]pyrimidin-6-yl]methyl}imidazolidin-2-ylidene]cyanamide]
13	Cc1c(CN2CCNC2=NC#N)sc2c1c(=O)n(CC(F)(F)F)c(=O)n2CC1CCCO1 (single isomer, unassigned) [Example 361, [1-{[5-Methyl-2,4-dioxo-1-(tetrahydrofuran-2-ylmethyl)-3-(2,2,2-trifluoroethyl)-1,2,3,4-tetrahydrothieno[2,3-d]pyrimidin-6-yl]methyl}imidazolidin-2-ylidene]cyanamide]
8	CCn1c(=O)c2c(C)c(CN3CCNC3=O)sc2n(CC2CC2(F)F)c1=O (single isomer, unassigned; enantiomer 2) [Example 56, 1-[(2,2-Difluorocyclopropyl)methyl]-3-ethyl-5-methyl-6-[(2-oxoimidazolidin-1-yl)methyl]thieno[2,3-d]pyrimidine-2,4(1H,3H)-dione (Enantiomer 2)]
5.6	Cc1c(Cn2cc[nH]c2=O)sc2c1c(=O)n(CC(F)(F)F)c(=O)n2CCC(F)(F)F [Example 339, 5-Methyl-6-[(2-oxo-2,3-dihydro-1H-imidazol-1-yl)methyl]-3-(2,2,2-trifluoroethyl)-1-(3,3,3-trifluoropropyl)thieno[2,3-d]pyrimidine-2,4(1H,3H)-dione]
94	CCn1c(=O)c2c(C)c(CN3CCNC(=O)C3=O)sc2n(CCOC2CCCC2)c1=O [Example 395, 1-[2-(Cyclopentyloxy)ethyl]-6-[(2,3-dioxopiperazin-1-yl)methyl]-3-ethyl-5-methylthieno[2,3-d]pyrimidine-2,4(1H,3H)-dione]
5.1	CCn1c(=O)c2c(C)c(CN3CCOC3=O)sc2n(CCC(F)(F)F)c1=O [Example 21, 3-Ethyl-5-methyl-6-[(2-oxo-1,3-oxazolidin-3-yl)methyl]-1-(3,3,3-trifluoropropyl)thieno[2,3-d]pyrimidine-2,4(1H,3H)-dione]
12	COCCn1c(=O)n(CC(F)(F)F)c(=O)c2c(C)c(CN3CCNC3=NC#N)sc21 [Example 268, [1-{[1-(2-Methoxyethyl)-5-methyl-2,4-dioxo-3-(2,2,2-trifluoroethyl)-1,2,3,4-tetrahydrothieno[2,3-d]pyrimidin-6-yl]methyl}imidazolidin-2-ylidene]cyanamide]
17	Cc1c(CN2CCNC2=S)sc2c1c(=O)n(C(C)C)c(=O)n2C [Example 297, 3-Isopropyl-1,5-dimethyl-6-[(2-thioxoimidazolidin-1-yl)methyl]thieno[2,3-d]pyrimidine-2,4(1H,3H)-dione]

Source: patent publication US10428083B2, “Heterocyclylmethyl-thienouracile as antagonists of the adenosine-A2B-receptor” (BAYER PHARMA AKTIENGESELLSCHAFT, priority 2015, dated 2019)
